Reference: PMC5206802 (Journal of medicinal chemistry, 2016)

Key:
Format in all cases: cell-based
[1] = tested on: HIV-1 A17 (K103N and Y181C); test: microbe, parasite or virus in culture; conditions: Human immunodeficiency virus 1, MT2, read-out: EC50 A17
HIV-1 IIIB = test: HIV-1 infection assay using MT-2 cells; conditions: Human immunodeficiency virus 1, IIIB, MT2, read-out: EC50 IIIB
MT-2 cells = tested on: MT-2 cells
HIV-1 NL4-3 = test: Inhibition of HIV-1 infection of TZM-bl cells; conditions: wild-type NL4-3

Compound	EC50 [1] [nM]	EC50 (HIV-1 IIIB) [nM]	SI (selective index) CC50/EC50(IIIB) (MT-2 cells)	fold less potent than the corresponding bromo/methoxy-DAANs (14c and 14d) (HIV-1 NL4-3)
CC(=O)OCc1cc(N)c(Nc2ccc(C#N)cc2)cc1Oc1c(C)cc(CCC#N)cc1C [Compound 6h, 4-Acetoxymethyl-5-[4″-(2-cyanoethyl)-2″,6″-dimethylphenoxy]-N^1-(4′-cyanophenyl)benzene-1,2-diamine]	4.92 ± 0.12	0.96 ± 0.12	46,667	
COCc1cc(N)c(Nc2ccc(C#N)cc2)cc1Oc1c(C)cc(CCC#N)cc1C [Compound 6k, 5-[4″-(2-Cyanoethyl)-2″,6″-dimethylphenoxy]-N^1-(4′-cyanophenyl)-4-methoxymethylbenzene-1,2-diamine]	2.95 ± 0.5	3.25 ± 0.23	>61,538	
COC(=O)c1cc(N)c(Nc2ccc(C#N)cc2)cc1Oc1c(OC)cc(CCC#N)cc1OC [Compound 13c, 5-[4″-(2-Cyanoethyl)-2″,6″-dimethoxyphenoxy]-N^1-(4′-cyanophenyl)-4-methoxycarbonylbenzene-1,2-diamine]				at least 20 fold
CNC(=O)c1cc(N)c(Nc2ccc(C#N)cc2)cc1Oc1c(OC)cc(CCC#N)cc1OC [Compound 13d, 5-[4″-(2-Cyanoethyl)-2″,6″-dimethoxyphenoxy]-N^1-(4′-cyanophenyl)-4-methylcarbamoylbenzene-1,2-diamine]				at least 20 fold
